What was measured:
SCC-3 = assay: cells; type: functional, cell-based; details: Homo sapiens;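 also: cell viability assay measuring inhibition of SCC-3 cell growth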
Description: SANGER: Inhibition of human SCC-3 cell growth in a cell viability assay.

OAW-42 = assay: cells; type: functional, cell-based; details: Homo sapiens;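 also: growth inhibition of OAW-42 cells, read out with a cell viability assay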
Description: SANGER: Inhibition of human OAW-42 cell growth in a cell viability assay.

NB12 = assay: cells; type: functional, cell-based; details: Homo sapiens;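 also: growth inhibition of human NB12 cells, read out by a cell viability assay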
Description: SANGER: Inhibition of human NB12 cell growth in a cell viability assay.

CHP-212 = assay: cells; type: functional, cell-based; details: Homo sapiens
Description: SANGER: Inhibition of human CHP-212 cell growth in a cell viability assay.

UMUC3 = assay: cells; type: functional, cell-based; details: Homo sapiens;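 also: growth inhibition of human UM-UC-3 cells, read out with a cell viability assay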
Description: SANGER: Inhibition of human UM-UC-3 cell growth in a cell viability assay.

647-V = assay: cells; type: functional, cell-based; details: Homo sapiens;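 also: growth inhibition of 647-V cells, read out with a cell viability assay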
Description: SANGER: Inhibition of human 647-V cell growth in a cell viability assay.

NCI-H1522 = assay: cells; type: functional, cell-based; details: Homo sapiens;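 also: growth inhibition of NCI-H1522 cells, read out with a cell viability assay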
Description: SANGER: Inhibition of human NCI-H1522 cell growth in a cell viability assay.

NCI-H1623 = assay: cells; type: functional, cell-based; details: Homo sapiens;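 also: cell viability assay used as the read-out for growth inhibition of NCI-H1623 cells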
Description: SANGER: Inhibition of human NCI-H1623 cell growth in a cell viability assay.

NCI-H520 = assay: cells; type: functional, cell-based; details: Homo sapiens;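 also: growth inhibition of NCI-H520 cells, measured by a cell viability assay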
Description: SANGER: Inhibition of human NCI-H520 cell growth in a cell viability assay.

DMS-273 = assay: cells; type: functional, cell-based; details: Homo sapiens
Description: SANGER: Inhibition of human DMS-273 cell growth in a cell viability assay.

SK-MEL3 = assay: cells; type: functional, cell-based, SK-MEL-3; details: Homo sapiens;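 also: growth inhibition of human SK-MEL-3 cells, read out with a cell viability assay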
Description: SANGER: Inhibition of human SK-MEL-3 cell growth in a cell viability assay.

H4 = assay: cells; type: functional, cell-based; details: Homo sapiens
Description: SANGER: Inhibition of human H4 cell growth in a cell viability assay.

HCC1599 = assay: cells; type: functional, cell-based; details: Homo sapiens;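 also: growth inhibition of HCC1599 cells, read out in a cell viability assay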
Description: SANGER: Inhibition of human HCC1599 cell growth in a cell viability assay.

SCC-25 = assay: cells; type: functional, cell-based; details: Homo sapiens;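 also: growth inhibition of SCC-25 cells, measured with a cell viability assay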
Description: SANGER: Inhibition of human SCC-25 cell growth in a cell viability assay.

C32 = assay: cells; type: functional, cell-based; details: Homo sapiens;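 also: cell viability assay, with IC50 reflecting inhibition of C32 cell growth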
Description: SANGER: Inhibition of human C32 cell growth in a cell viability assay.

SW1710 = assay: cells; type: functional, cell-based; details: Homo sapiens;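 also: growth inhibition of SW1710 cells, determined with a cell viability assay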
Description: SANGER: Inhibition of human SW1710 cell growth in a cell viability assay.

Raji = assay: cells; type: functional, cell-based; details: Homo sapiens;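 also: cell viability assay measuring inhibition of Raji cell growth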
Description: SANGER: Inhibition of human Raji cell growth in a cell viability assay.

NCI-H716 = assay: cells; type: functional, cell-based; details: Homo sapiens;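 also: growth inhibition of human NCI-H716 cells, measured by a cell viability assay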
Description: SANGER: Inhibition of human NCI-H716 cell growth in a cell viability assay.

ChaGo-K-1 = assay: cells; type: functional, cell-based; details: Homo sapiens;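 also: growth inhibition of ChaGo-K-1 cells, read out with a cell viability assay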
Description: SANGER: Inhibition of human ChaGo-K-1 cell growth in a cell viability assay.

CP50-MEL-B = assay: cells; type: functional, cell-based; details: Homo sapiens;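 also: growth inhibition of the human cell line, measured with a cell viability read-out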
Description: SANGER: Inhibition of human CP50-MEL-B cell growth in a cell viability assay.

A2058 = assay: cells; type: functional, cell-based; details: Homo sapiens;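 also: reduction of A2058 cell growth, read out with a viability assay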
Description: SANGER: Inhibition of human A2058 cell growth in a cell viability assay.

NCI-H524 = assay: cells; type: functional, cell-based; details: Homo sapiens;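 also: growth inhibition of human NCI-H524 cells, read out through a cell viability assay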
Description: SANGER: Inhibition of human NCI-H524 cell growth in a cell viability assay.

SW1990 = assay: cells; type: functional, cell-based; details: Homo sapiens
Description: SANGER: Inhibition of human SW1990 cell growth in a cell viability assay.

G-401 = assay: cells; type: functional, cell-based; details: Homo sapiens
Description: SANGER: Inhibition of human G-401 cell growth in a cell viability assay.

HCC1569 = assay: cells; type: functional, cell-based; details: Homo sapiens;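 also: growth inhibition of human HCC1569 cells, read out with a cell viability assay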
Description: SANGER: Inhibition of human HCC1569 cell growth in a cell viability assay.

MKN-7 = assay: cells; type: functional, cell-based; details: Homo sapiens;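 also: growth inhibition of MKN-7 cells, read out with a cell viability assay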
Description: SANGER: Inhibition of human MKN7 cell growth in a cell viability assay.

EB-3 = assay: cells; type: functional, cell-based; details: Homo sapiens;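 also: human EB-3 cells, growth inhibition read out via a cell viability assay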
Description: SANGER: Inhibition of human EB-3 cell growth in a cell viability assay.

NCI-H650 = assay: cells; type: functional, cell-based; details: Homo sapiens;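 also: growth inhibition of NCI-H650 cells, read out by a viability assay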
Description: SANGER: Inhibition of human NCI-H650 cell growth in a cell viability assay.

PF-382 = assay: cells; type: functional, cell-based; details: Homo sapiens
Description: SANGER: Inhibition of human PF-382 cell growth in a cell viability assay.

8305C = assay: cells; type: functional, cell-based; details: Homo sapiens
Description: SANGER: Inhibition of human 8305C cell growth in a cell viability assay.

SW1088 = assay: cells; type: functional, cell-based; details: Homo sapiens;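 also: growth inhibition of human SW1088 cells, read out by a cell viability assay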
Description: SANGER: Inhibition of human SW1088 cell growth in a cell viability assay.

PFSK-1 = assay: cells; type: functional, cell-based; details: Homo sapiens;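 also: cell viability assay measuring how strongly compounds suppress growth of human PFSK-1 cells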
Description: SANGER: Inhibition of human PFSK-1 cell growth in a cell viability assay.

YAPC = assay: cells; type: functional, cell-based; details: Homo sapiens;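 also: growth inhibition of YAPC cells, measured with a cell viability assay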
Description: SANGER: Inhibition of human YAPC cell growth in a cell viability assay.

HSC-3 = assay: cells; type: functional, cell-based; details: Homo sapiens
Description: SANGER: Inhibition of human HSC-3 cell growth in a cell viability assay.

CAL-148 = assay: cells; type: functional, cell-based; details: Homo sapiens
Description: SANGER: Inhibition of human CAL-148 cell growth in a cell viability assay.

L-540 = assay: cells; type: functional, cell-based; details: Homo sapiens;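 also: growth inhibition of the human L-540 cell line, read out with a viability assay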
Description: SANGER: Inhibition of human L-540 cell growth in a cell viability assay.

OPM-2 = assay: cells; type: functional, cell-based; details: Homo sapiens;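 also: growth of OPM-2 cells measured with a viability assay, IC50 for suppression of proliferation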
Description: SANGER: Inhibition of human OPM-2 cell growth in a cell viability assay.

UMC-11 = assay: cells; type: functional, cell-based; details: Homo sapiens;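 also: growth inhibition of UMC-11 cells, read out with a cell viability assay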
Description: SANGER: Inhibition of human UMC-11 cell growth in a cell viability assay.

YT = assay: cells; type: functional, cell-based; details: Homo sapiens
Description: SANGER: Inhibition of human YT cell growth in a cell viability assay.

RERF-LC-MS = assay: cells; type: functional, cell-based; details: Homo sapiens;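 also: growth inhibition of human RERF-LC-MS cells, read out by a cell viability assay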
Description: SANGER: Inhibition of human RERF-LC-MS cell growth in a cell viability assay.

HCT-15 = assay: cells; type: functional, cell-based; details: Homo sapiens;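 also: cell viability readout, IC50 reflecting suppression of HCT-15 cell growth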
Description: SANGER: Inhibition of human HCT-15 cell growth in a cell viability assay.

BL-70 = assay: SANGER: Inhibition of human BL-70 cell growth in a cell viability assay.; type: functional, cell-based
NCI-H2030 = assay: cells; type: functional, cell-based; details: Homo sapiens;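 also: growth inhibition of human NCI-H2030 cells, read out by a cell viability assay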
Description: SANGER: Inhibition of human NCI-H2030 cell growth in a cell viability assay.

LC4-1 = assay: cells; type: functional, cell-based; details: Homo sapiens;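 also: growth inhibition of LC4-1 cells, read out with a cell viability assay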
Description: SANGER: Inhibition of human LC4-1 cell growth in a cell viability assay.

KYSE-520 cell line = assay: cells; type: functional, cell-based; details: Homo sapiens;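 also: growth inhibition of human KYSE-520 cells, read out with a viability assay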
Description: SANGER: Inhibition of human KYSE-520 cell growth in a cell viability assay.

COR-L23 = assay: cells; type: functional, cell-based; details: Homo sapiens;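 also: cell viability assay measuring how strongly compounds suppress growth of COR-L23 cells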
Description: SANGER: Inhibition of human COR-L23 cell growth in a cell viability assay.

KYSE-270 = assay: cells; type: functional, cell-based; details: Homo sapiens;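 also: cell growth inhibition measured with a viability assay in the human KYSE-270 line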
Description: SANGER: Inhibition of human KYSE-270 cell growth in a cell viability assay.

EHEB = assay: cells; type: functional, cell-based; details: Homo sapiens;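 also: growth inhibition of human EHEB cells, read out with a cell viability assay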
Description: SANGER: Inhibition of human EHEB cell growth in a cell viability assay.

MDA-MB-453 = assay: cells; type: functional, cell-based; details: Homo sapiens
Description: SANGER: Inhibition of human MDA-MB-453 cell growth in a cell viability assay.

SK-HEP1 = assay: cells; type: functional, cell-based, SK-HEP-1; details: Homo sapiens;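 also: cell viability readout used to quantify reduction in proliferation of human SK-HEP-1 cells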
Description: SANGER: Inhibition of human SK-HEP-1 cell growth in a cell viability assay.

NCI-H1417 = assay: cells; type: functional, cell-based; details: Homo sapiens;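 also: human NCI-H1417 cells, growth inhibition determined with a cell viability readout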
Description: SANGER: Inhibition of human NCI-H1417 cell growth in a cell viability assay.

HSC-4 = assay: cells; type: functional, cell-based; details: Homo sapiens;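 also: growth inhibition of human HSC-4 cells, read out with a cell viability assay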
Description: SANGER: Inhibition of human HSC-4 cell growth in a cell viability assay.

MDA-MB-175-VII = assay: cells; type: functional, cell-based; details: Homo sapiens
A253 cell line = assay: cells; type: functional, cell-based; details: Homo sapiens;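 also: growth inhibition of A253 cells, read out with a cell viability assay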
Description: SANGER: Inhibition of human A253 cell growth in a cell viability assay.

BHT-101 = assay: cells; type: functional, cell-based; details: Homo sapiens
Description: SANGER: Inhibition of human BHT-101 cell growth in a cell viability assay.

TE-441-T = assay: cells; type: functional, cell-based; details: Homo sapiens
Description: SANGER: Inhibition of human TE-441-T cell growth in a cell viability assay.

NCI-H322M = assay: cells; type: functional, cell-based; details: Homo sapiens;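 also: cell viability assay measuring inhibition of growth of human NCI-H322M cells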
Description: SANGER: Inhibition of human NCI-H322M cell growth in a cell viability assay.

HEC-1 = assay: cells; type: functional, cell-based; details: Homo sapiens;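 also: growth inhibition of the cell line, read out with a cell viability assay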
Description: SANGER: Inhibition of human HEC-1 cell growth in a cell viability assay.

CESS = assay: SANGER: Inhibition of human CESS cell growth in a cell viability assay.; type: functional, cell-based
HCC1806 = assay: cells; type: functional, cell-based; details: Homo sapiens;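 also: growth inhibition of the cancer cell line, determined with a cell viability assay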
Description: SANGER: Inhibition of human HCC1806 cell growth in a cell viability assay.

SBC-5 = assay: cells; type: functional, cell-based; details: Homo sapiens;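 also: cell viability assay read-out, IC50 is the concentration that inhibits growth of the cells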
Description: SANGER: Inhibition of human SBC-5 cell growth in a cell viability assay.

S-117 = assay: cells; type: functional, cell-based; details: Homo sapiens
Description: SANGER: Inhibition of human S-117 cell growth in a cell viability assay.

ST486 = assay: SANGER: Inhibition of human ST486 cell growth in a cell viability assay.; type: functional, cell-based
U2OS = assay: cells; type: functional, cell-based, U-2-OS; details: Homo sapiens;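 also: growth inhibition of human U-2-OS cells, determined with a cell viability assay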
Description: SANGER: Inhibition of human U-2-OS cell growth in a cell viability assay.

For Fc1cc(-c2cc[nH]/c(=N/c3ccc(-n4cnc(N5CCOCC5)n4)cc3)n2)cc(N2CCOCC2)c1, the IC50 (SCC-3) was 582 nM, the IC50 (OAW-42) was 877 nM and the IC50 (NB12) was 383 nM. It also gave an IC50 (CHP-212) of 286 nM, an IC50 (UMUC3) of 1270 nM and an IC50 (647-V) of 401 nM. The IC50 (NCI-H1522) was 889 nM, the IC50 (NCI-H1623) was 1300 nM and the IC50 (NCI-H520) was 467 nM. For the same compound, the IC50 (DMS-273) was 105 nM, the IC50 (SK-MEL3) was 877 nM and the IC50 (H4) was 439 nM. For the same compound, the IC50 (HCC1599) was 466 nM, the IC50 (SCC-25) was 196 nM and the IC50 (C32) was greater than 5120 nM. For the same compound, the IC50 (SW1710) was 232 nM, the IC50 (Raji) was 495 nM and the IC50 (NCI-H716) was 3920 nM. It also gave an IC50 (ChaGo-K-1) of 1370 nM, an IC50 (CP50-MEL-B) of 722 nM and an IC50 (A2058) of 500 nM. For the same compound, the IC50 (NCI-H524) was greater than 5120 nM, the IC50 (SW1990) was 1100 nM and the IC50 (G-401) was 380 nM. It also gave an IC50 (HCC1569) of 412 nM, an IC50 (MKN-7) of 3140 nM and an IC50 (EB-3) of 1830 nM. The IC50 (NCI-H650) was 141 nM, the IC50 (PF-382) was 476 nM and the IC50 (8305C) was 397 nM. The IC50 (SW1088) was greater than 5120 nM, the IC50 (PFSK-1) was 811 nM and the IC50 (YAPC) was 2290 nM. It also gave an IC50 (HSC-3) of 713 nM, an IC50 (CAL-148) of 4940 nM and an IC50 (L-540) of 677 nM. It also gave an IC50 (OPM-2) of 514 nM, an IC50 (UMC-11) of 179 nM and an IC50 (YT) of 204 nM. The IC50 (RERF-LC-MS) was 874 nM, the IC50 (HCT-15) was 258 nM and the IC50 (BL-70) was 252 nM. It also gave an IC50 (NCI-H2030) of 169 nM, an IC50 (LC4-1) of 431 nM and an IC50 (KYSE-520 cell line) of 448 nM. For the same compound, the IC50 (COR-L23) was 1000 nM, the IC50 (KYSE-270) was 222 nM and the IC50 (EHEB) was 376 nM. For the same compound, the IC50 (MDA-MB-453) was greater than 5120 nM, the IC50 (SK-HEP1) was 410 nM and the IC50 (NCI-H1417) was greater than 5120 nM. It also gave an IC50 (HSC-4) of 4250 nM, an IC50 (MDA-MB-175-VII) of 2960 nM and an IC50 (A253 cell line) of 261 nM. For the same compound, the IC50 (BHT-101) was 667 nM, the IC50 (TE-441-T) was 316 nM and the IC50 (NCI-H322M) was greater than 5120 nM. The IC50 (HEC-1) was 2150 nM, the IC50 (CESS) was 341 nM and the IC50 (HCC1806) was 637 nM. It also gave an IC50 (SBC-5) of 398 nM, an IC50 (S-117) greater than 5120 nM and an IC50 (ST486) of 190 nM. It also gave an IC50 (U2OS) greater than 5120 nM.
Work on Cc1n[nH]c2ccc(-c3cncc(OC[C@@H](N)Cc4c[nH]c5ccccc45)c3)cc12 [A-443654] yielded an IC50 (SCC-3) of 620 nM, an IC50 (NCI-H1522) of 464 nM and an IC50 (HCC1599) of 162 nM. It also gave an IC50 (Raji) of 380 nM, an IC50 (NCI-H716) greater than 1020 nM and an IC50 (NCI-H524) of 860 nM. For the same compound, the IC50 (EB-3) was 334 nM, the IC50 (PF-382) was 638 nM and the IC50 (CAL-148) was 88.3 nM. It also gave an IC50 (L-540) of 346 nM, an IC50 (OPM-2) of 314 nM and an IC50 (YT) greater than 1020 nM. For the same compound, the IC50 (BL-70) was 57 nM, the IC50 (LC4-1) was 217 nM and the IC50 (EHEB) was 402 nM. The IC50 (NCI-H1417) was 584 nM, the IC50 (A253 cell line) was 393 nM and the IC50 (TE-441-T) was 798 nM. For the same compound, the IC50 (NCI-H322M) was greater than 1020 nM, the IC50 (CESS) was 191 nM and the IC50 (ST486) was 204 nM.
Cc1nc(Nc2ncc(C(=O)Nc3c(C)cccc3Cl)s2)cc(N2CCN(CCO)CC2)n1 [DASATINIB] was tested, and the IC50 (SCC-3) was greater than 1280 nM, the IC50 (NCI-H1522) was greater than 1280 nM and the IC50 (HCC1599) was greater than 1280 nM. It also gave an IC50 (Raji) greater than 1280 nM, an IC50 (NCI-H716) greater than 1280 nM and an IC50 (NCI-H524) greater than 1280 nM. The IC50 (EB-3) was greater than 1280 nM, the IC50 (PF-382) was 177 nM and the IC50 (CAL-148) was greater than 1280 nM. It also gave an IC50 (L-540) greater than 1280 nM, an IC50 (OPM-2) greater than 1280 nM and an IC50 (YT) greater than 1280 nM. For the same compound, the IC50 (BL-70) was less than 5 nM, the IC50 (LC4-1) was greater than 1280 nM and the IC50 (EHEB) was greater than 1280 nM. The IC50 (NCI-H1417) was greater than 1280 nM, the IC50 (A253 cell line) was greater than 1280 nM and the IC50 (TE-441-T) was greater than 1280 nM. It also gave an IC50 (NCI-H322M) greater than 1280 nM, an IC50 (CESS) greater than 1280 nM and an IC50 (ST486) greater than 1280 nM.
Cc1[nH]c(/C=C2\C(=O)Nc3ccc(S(=O)(=O)Cc4c(Cl)cccc4Cl)cc32)c(C)c1C(=O)N1CCC[C@@H]1CN1CCCC1 [PHA-665752] gave an IC50 (SCC-3) greater than 2000 nM, an IC50 (NCI-H1522) greater than 2000 nM and an IC50 (HCC1599) greater than 2000 nM. For the same compound, the IC50 (Raji) was greater than 2000 nM, the IC50 (NCI-H716) was greater than 2000 nM and the IC50 (NCI-H524) was greater than 2000 nM. It also gave an IC50 (EB-3) greater than 2000 nM, an IC50 (PF-382) greater than 2000 nM and an IC50 (CAL-148) greater than 2000 nM. For the same compound, the IC50 (L-540) was greater than 2000 nM, the IC50 (OPM-2) was greater than 2000 nM and the IC50 (YT) was greater than 2000 nM. It also gave an IC50 (BL-70) greater than 2000 nM, an IC50 (LC4-1) greater than 2000 nM and an IC50 (EHEB) greater than 2000 nM. The IC50 (NCI-H1417) was greater than 2000 nM, the IC50 (A253 cell line) was greater than 2000 nM and the IC50 (TE-441-T) was greater than 2000 nM. It also gave an IC50 (NCI-H322M) greater than 2000 nM, an IC50 (CESS) greater than 2000 nM and an IC50 (ST486) greater than 2000 nM.
